Source: patent US12203124B2, “Methods for improved rapid antimicrobial susceptibility testing” (priority 2016, dated 2025)
Values after ≈ are worked out from the molar mass of the structure shown.

System: E. coli strains
Test: CLSI overnight reference method, broth microdilution MIC
Type: cell-based
Details: E. coli strain BEI 4.097; unit assumed

| SMILES | MIC (CLSI Ref) [µg/mL] |
| --- | --- |
| CO/N=C(\C(=O)N[C@@H]1C(=O)N2C(C(=O)O)=C(CSc3nc(=O)c(=O)[nH]n3C)CS[C@H]12)c1csc(N)n1 [CRO, Ceftriaxone] | < 0.12 |
| C[C@@H](O)[C@H]1C(=O)N2C(C(=O)O)=C(S[C@@H]3CN[C@H](C(=O)Nc4cccc(C(=O)O)c4)C3)[C@H](C)[C@H]12 [ERT, Ertapenem] | 0.008 (≈ 0.0168 µM) |
| C[C@H]1COc2c(N3CCN(C)CC3)c(F)cc3c(=O)c(C(=O)O)cn1c23 [LVX, Levofloxacin] | < 0.06 |
| C[C@@H](O)[C@H]1C(=O)N2C(C(=O)O)=C(S[C@@H]3CN[C@H](C(=O)N(C)C)C3)[C@H](C)[C@H]12 [MEM, Meropenem] | < 0.06 |

Same assay, conditions: E. coli strain CDC Carba36; unit assumed

| SMILES | MIC (CLSI Ref) [µg/mL] |
| --- | --- |
| CO/N=C(\C(=O)N[C@@H]1C(=O)N2C(C(=O)O)=C(CSc3nc(=O)c(=O)[nH]n3C)CS[C@H]12)c1csc(N)n1 [CRO, Ceftriaxone] | 1 (≈ 1.8 µM) |
| C[C@@H](O)[C@H]1C(=O)N2C(C(=O)O)=C(S[C@@H]3CN[C@H](C(=O)Nc4cccc(C(=O)O)c4)C3)[C@H](C)[C@H]12 [ERT, Ertapenem] | 0.12 (≈ 0.252 µM) |
| C[C@H]1COc2c(N3CCN(C)CC3)c(F)cc3c(=O)c(C(=O)O)cn1c23 [LVX, Levofloxacin] | > 8 |
| C[C@@H](O)[C@H]1C(=O)N2C(C(=O)O)=C(S[C@@H]3CN[C@H](C(=O)N(C)C)C3)[C@H](C)[C@H]12 [MEM, Meropenem] | < 0.06 |

Same assay, conditions: E. coli strain Clinical Sample 1; unit assumed

| SMILES | MIC (CLSI Ref) [µg/mL] |
| --- | --- |
| CO/N=C(\C(=O)N[C@@H]1C(=O)N2C(C(=O)O)=C(CSc3nc(=O)c(=O)[nH]n3C)CS[C@H]12)c1csc(N)n1 [CRO, Ceftriaxone] | < 0.12 |
| C[C@@H](O)[C@H]1C(=O)N2C(C(=O)O)=C(S[C@@H]3CN[C@H](C(=O)Nc4cccc(C(=O)O)c4)C3)[C@H](C)[C@H]12 [ERT, Ertapenem] | 0.008 (≈ 0.0168 µM) |
| C[C@H]1COc2c(N3CCN(C)CC3)c(F)cc3c(=O)c(C(=O)O)cn1c23 [LVX, Levofloxacin] | < 0.06 |
| C[C@@H](O)[C@H]1C(=O)N2C(C(=O)O)=C(S[C@@H]3CN[C@H](C(=O)N(C)C)C3)[C@H](C)[C@H]12 [MEM, Meropenem] | < 0.06 |

Same assay, conditions: E. coli strain Clinical Sample 2

| SMILES | Interpretation letter |
| --- | --- |
| CO/N=C(\C(=O)N[C@@H]1C(=O)N2C(C(=O)O)=C(CSc3nc(=O)c(=O)[nH]n3C)CS[C@H]12)c1csc(N)n1 [CRO, Ceftriaxone] | I |

Same assay, conditions: E. coli strain Clinical Sample 2; unit assumed

| SMILES | MIC (CLSI Ref) [µg/mL] |
| --- | --- |
| CO/N=C(\C(=O)N[C@@H]1C(=O)N2C(C(=O)O)=C(CSc3nc(=O)c(=O)[nH]n3C)CS[C@H]12)c1csc(N)n1 [CRO, Ceftriaxone] | 2 (≈ 3.61 µM) |
| C[C@@H](O)[C@H]1C(=O)N2C(C(=O)O)=C(S[C@@H]3CN[C@H](C(=O)Nc4cccc(C(=O)O)c4)C3)[C@H](C)[C@H]12 [ERT, Ertapenem] | 0.015 (≈ 0.0315 µM) |
| C[C@H]1COc2c(N3CCN(C)CC3)c(F)cc3c(=O)c(C(=O)O)cn1c23 [LVX, Levofloxacin] | < 0.06 |
| C[C@@H](O)[C@H]1C(=O)N2C(C(=O)O)=C(S[C@@H]3CN[C@H](C(=O)N(C)C)C3)[C@H](C)[C@H]12 [MEM, Meropenem] | < 0.06 |

Same assay, conditions: E. coli strain Clinical Sample 4; unit assumed

| SMILES | MIC (CLSI Ref) [µg/mL] |
| --- | --- |
| CO/N=C(\C(=O)N[C@@H]1C(=O)N2C(C(=O)O)=C(CSc3nc(=O)c(=O)[nH]n3C)CS[C@H]12)c1csc(N)n1 [CRO, Ceftriaxone] | < 0.12 |
| C[C@@H](O)[C@H]1C(=O)N2C(C(=O)O)=C(S[C@@H]3CN[C@H](C(=O)Nc4cccc(C(=O)O)c4)C3)[C@H](C)[C@H]12 [ERT, Ertapenem] | 0.008 (≈ 0.0168 µM) |
| C[C@H]1COc2c(N3CCN(C)CC3)c(F)cc3c(=O)c(C(=O)O)cn1c23 [LVX, Levofloxacin] | > 8 |
| C[C@@H](O)[C@H]1C(=O)N2C(C(=O)O)=C(S[C@@H]3CN[C@H](C(=O)N(C)C)C3)[C@H](C)[C@H]12 [MEM, Meropenem] | < 0.06 |

Same assay, conditions: E. coli strain Clinical Sample 5; unit assumed

| SMILES | MIC (CLSI Ref) [µg/mL] |
| --- | --- |
| CO/N=C(\C(=O)N[C@@H]1C(=O)N2C(C(=O)O)=C(CSc3nc(=O)c(=O)[nH]n3C)CS[C@H]12)c1csc(N)n1 [CRO, Ceftriaxone] | < 0.12 |
| C[C@@H](O)[C@H]1C(=O)N2C(C(=O)O)=C(S[C@@H]3CN[C@H](C(=O)Nc4cccc(C(=O)O)c4)C3)[C@H](C)[C@H]12 [ERT, Ertapenem] | 0.008 (≈ 0.0168 µM) |
| C[C@H]1COc2c(N3CCN(C)CC3)c(F)cc3c(=O)c(C(=O)O)cn1c23 [LVX, Levofloxacin] | > 8 |
| C[C@@H](O)[C@H]1C(=O)N2C(C(=O)O)=C(S[C@@H]3CN[C@H](C(=O)N(C)C)C3)[C@H](C)[C@H]12 [MEM, Meropenem] | < 0.06 |

Same assay, conditions: E. coli strain Clinical Sample 6; unit assumed

| SMILES | MIC (CLSI Ref) [µg/mL] |
| --- | --- |
| CO/N=C(\C(=O)N[C@@H]1C(=O)N2C(C(=O)O)=C(CSc3nc(=O)c(=O)[nH]n3C)CS[C@H]12)c1csc(N)n1 [CRO, Ceftriaxone] | < 0.12 |
| C[C@@H](O)[C@H]1C(=O)N2C(C(=O)O)=C(S[C@@H]3CN[C@H](C(=O)Nc4cccc(C(=O)O)c4)C3)[C@H](C)[C@H]12 [ERT, Ertapenem] | 0.008 (≈ 0.0168 µM) |
| C[C@H]1COc2c(N3CCN(C)CC3)c(F)cc3c(=O)c(C(=O)O)cn1c23 [LVX, Levofloxacin] | < 0.06 |
| C[C@@H](O)[C@H]1C(=O)N2C(C(=O)O)=C(S[C@@H]3CN[C@H](C(=O)N(C)C)C3)[C@H](C)[C@H]12 [MEM, Meropenem] | < 0.06 |

Same assay, conditions: E. coli strain Clinical Sample 7; unit assumed

| SMILES | MIC (CLSI Ref) [µg/mL] |
| --- | --- |
| CO/N=C(\C(=O)N[C@@H]1C(=O)N2C(C(=O)O)=C(CSc3nc(=O)c(=O)[nH]n3C)CS[C@H]12)c1csc(N)n1 [CRO, Ceftriaxone] | < 0.12 |
| C[C@@H](O)[C@H]1C(=O)N2C(C(=O)O)=C(S[C@@H]3CN[C@H](C(=O)Nc4cccc(C(=O)O)c4)C3)[C@H](C)[C@H]12 [ERT, Ertapenem] | 0.008 (≈ 0.0168 µM) |
| C[C@H]1COc2c(N3CCN(C)CC3)c(F)cc3c(=O)c(C(=O)O)cn1c23 [LVX, Levofloxacin] | < 0.06 |
| C[C@@H](O)[C@H]1C(=O)N2C(C(=O)O)=C(S[C@@H]3CN[C@H](C(=O)N(C)C)C3)[C@H](C)[C@H]12 [MEM, Meropenem] | < 0.06 |

Same assay, conditions: E. coli strain Clinical Sample 8; unit assumed

| SMILES | MIC (CLSI Ref) [µg/mL] |
| --- | --- |
| CO/N=C(\C(=O)N[C@@H]1C(=O)N2C(C(=O)O)=C(CSc3nc(=O)c(=O)[nH]n3C)CS[C@H]12)c1csc(N)n1 [CRO, Ceftriaxone] | 64 (≈ 115 µM) |
| C[C@@H](O)[C@H]1C(=O)N2C(C(=O)O)=C(S[C@@H]3CN[C@H](C(=O)Nc4cccc(C(=O)O)c4)C3)[C@H](C)[C@H]12 [ERT, Ertapenem] | 0.25 (≈ 0.526 µM) |
| C[C@H]1COc2c(N3CCN(C)CC3)c(F)cc3c(=O)c(C(=O)O)cn1c23 [LVX, Levofloxacin] | < 0.06 |
| C[C@@H](O)[C@H]1C(=O)N2C(C(=O)O)=C(S[C@@H]3CN[C@H](C(=O)N(C)C)C3)[C@H](C)[C@H]12 [MEM, Meropenem] | < 0.06 |

Same assay, conditions: E. coli strain Clinical Sample 9; unit assumed

| SMILES | MIC (CLSI Ref) [µg/mL] |
| --- | --- |
| CO/N=C(\C(=O)N[C@@H]1C(=O)N2C(C(=O)O)=C(CSc3nc(=O)c(=O)[nH]n3C)CS[C@H]12)c1csc(N)n1 [CRO, Ceftriaxone] | > 64 |
| C[C@@H](O)[C@H]1C(=O)N2C(C(=O)O)=C(S[C@@H]3CN[C@H](C(=O)Nc4cccc(C(=O)O)c4)C3)[C@H](C)[C@H]12 [ERT, Ertapenem] | 0.12 (≈ 0.252 µM) |
| C[C@H]1COc2c(N3CCN(C)CC3)c(F)cc3c(=O)c(C(=O)O)cn1c23 [LVX, Levofloxacin] | > 8 |
| C[C@@H](O)[C@H]1C(=O)N2C(C(=O)O)=C(S[C@@H]3CN[C@H](C(=O)N(C)C)C3)[C@H](C)[C@H]12 [MEM, Meropenem] | < 0.06 |

Same assay, conditions: E. coli strain Clinical Sample 10; unit assumed

| SMILES | MIC (CLSI Ref) [µg/mL] |
| --- | --- |
| CO/N=C(\C(=O)N[C@@H]1C(=O)N2C(C(=O)O)=C(CSc3nc(=O)c(=O)[nH]n3C)CS[C@H]12)c1csc(N)n1 [CRO, Ceftriaxone] | < 0.12 |
| C[C@@H](O)[C@H]1C(=O)N2C(C(=O)O)=C(S[C@@H]3CN[C@H](C(=O)Nc4cccc(C(=O)O)c4)C3)[C@H](C)[C@H]12 [ERT, Ertapenem] | 0.008 (≈ 0.0168 µM) |
| C[C@H]1COc2c(N3CCN(C)CC3)c(F)cc3c(=O)c(C(=O)O)cn1c23 [LVX, Levofloxacin] | 8 (≈ 22.1 µM) |
| C[C@@H](O)[C@H]1C(=O)N2C(C(=O)O)=C(S[C@@H]3CN[C@H](C(=O)N(C)C)C3)[C@H](C)[C@H]12 [MEM, Meropenem] | < 0.06 |

Same assay, conditions: E. coli strain Clinical Sample 11; unit assumed

| SMILES | MIC (CLSI Ref) [µg/mL] |
| --- | --- |
| CO/N=C(\C(=O)N[C@@H]1C(=O)N2C(C(=O)O)=C(CSc3nc(=O)c(=O)[nH]n3C)CS[C@H]12)c1csc(N)n1 [CRO, Ceftriaxone] | < 0.12 |
| C[C@@H](O)[C@H]1C(=O)N2C(C(=O)O)=C(S[C@@H]3CN[C@H](C(=O)Nc4cccc(C(=O)O)c4)C3)[C@H](C)[C@H]12 [ERT, Ertapenem] | 0.008 (≈ 0.0168 µM) |
| C[C@H]1COc2c(N3CCN(C)CC3)c(F)cc3c(=O)c(C(=O)O)cn1c23 [LVX, Levofloxacin] | < 0.06 |
| C[C@@H](O)[C@H]1C(=O)N2C(C(=O)O)=C(S[C@@H]3CN[C@H](C(=O)N(C)C)C3)[C@H](C)[C@H]12 [MEM, Meropenem] | < 0.06 |

Same assay, conditions: E. coli strain Clinical Sample 12; unit assumed

| SMILES | MIC (CLSI Ref) [µg/mL] |
| --- | --- |
| CO/N=C(\C(=O)N[C@@H]1C(=O)N2C(C(=O)O)=C(CSc3nc(=O)c(=O)[nH]n3C)CS[C@H]12)c1csc(N)n1 [CRO, Ceftriaxone] | < 0.12 |
| C[C@@H](O)[C@H]1C(=O)N2C(C(=O)O)=C(S[C@@H]3CN[C@H](C(=O)Nc4cccc(C(=O)O)c4)C3)[C@H](C)[C@H]12 [ERT, Ertapenem] | 0.008 (≈ 0.0168 µM) |
| C[C@H]1COc2c(N3CCN(C)CC3)c(F)cc3c(=O)c(C(=O)O)cn1c23 [LVX, Levofloxacin] | 0.5 (≈ 1.38 µM) |
| C[C@@H](O)[C@H]1C(=O)N2C(C(=O)O)=C(S[C@@H]3CN[C@H](C(=O)N(C)C)C3)[C@H](C)[C@H]12 [MEM, Meropenem] | < 0.06 |

Same assay, conditions: E. coli strain Clinical Sample 13; unit assumed

| SMILES | MIC (CLSI Ref) [µg/mL] |
| --- | --- |
| CO/N=C(\C(=O)N[C@@H]1C(=O)N2C(C(=O)O)=C(CSc3nc(=O)c(=O)[nH]n3C)CS[C@H]12)c1csc(N)n1 [CRO, Ceftriaxone] | < 0.12 |
| C[C@@H](O)[C@H]1C(=O)N2C(C(=O)O)=C(S[C@@H]3CN[C@H](C(=O)Nc4cccc(C(=O)O)c4)C3)[C@H](C)[C@H]12 [ERT, Ertapenem] | 0.016 (≈ 0.0336 µM) |
| C[C@H]1COc2c(N3CCN(C)CC3)c(F)cc3c(=O)c(C(=O)O)cn1c23 [LVX, Levofloxacin] | < 0.06 |
| C[C@@H](O)[C@H]1C(=O)N2C(C(=O)O)=C(S[C@@H]3CN[C@H](C(=O)N(C)C)C3)[C@H](C)[C@H]12 [MEM, Meropenem] | < 0.06 |
